Experimental data from patent US20180042918A1, “RESPIRATORY INFECTION TREATING AGENT” (KYORIN PHARMACEUTICAL CO., LTD., priority 2015, published 2018).
Converted amounts (≈) assume the structure as drawn. Read-outs that look alike come from different tables or passages of the source. Marks after values point to notes of the source that are not given here.

Experiments:
S. pneumoniae IID553 = experiment: microbe, parasite or virus in culture; format: cell-based; conditions: Streptococcus pneumoniae
S. pneumoniae NF9884 = experiment: microbe, parasite or virus in culture; format: cell-based; conditions: Streptococcus pneumoniae
S. pneumoniae CF9842 = experiment: microbe, parasite or virus in culture; format: cell-based; conditions: Streptococcus pneumoniae
S. pneumoniae SF9863 = experiment: microbe, parasite or virus in culture; format: cell-based; conditions: Streptococcus pneumoniae
S. pneumoniae ST9941 = experiment: microbe, parasite or virus in culture; format: cell-based; conditions: Streptococcus pneumoniae
S. pneumoniae SN9981 = experiment: microbe, parasite or virus in culture; format: cell-based; conditions: Streptococcus pneumoniae
S. pneumoniae KY-9 = experiment: Antibacterial activity against Streptococcus pneumoniae in vitro, CLSI microdilution; format: cell-based; conditions: KY9
Protocol: The antibacterial activities in vitro of the compound D, garenoxacin, and levofloxacin against a strain in a mouse infected with Streptococcus pneumoniae (S. pneumonia KY-9) were measured in accordance with a CLSI microdilution method.

[1] = system: H. influenzaes (26 STRAINS); experiment: Antibacterial activity against clinically isolated strains, MIC90; format: cell-based; conditions: Haemophilus influenzae, 26 clinically isolated strains
Protocol: (§1) The antibacterial activities in vitro of the compound D, garenoxacin, and levofloxacin against each clinically isolated strain of Streptococcus pneumoniae, Moraxella catarrhalis, and Haemophilus influenzae were measured in accordance with a CLSI microdilution method or a CLSI agar dilution method. A MIC90 value was the minimum concentration in which the growth of 90% strain of all the measured strains was inhibited.

[2] = system: M. catarrhalis (26 STRAINS); experiment: as above; format: cell-based; conditions: Moraxella catarrhalis, 26 clinically isolated strains
Protocol: as §1

[3] = system: PCG-LOW SENSITIVE S. pneumoniae (22 STRAINS); experiment: as above; format: cell-based; conditions: Streptococcus pneumoniae, 22 clinically isolated strains
Protocol: as §1

PSSP (26 STRAINS) = experiment: as above; format: cell-based; conditions: Streptococcus pneumoniae, 26 clinically isolated strains
Protocol: as §1

S. aureus ATCC29213 [4] = experiment: MIC of strain used for resistance frequency test; format: cell-based; conditions: Staphylococcus aureus; S. aureus ATCC29213; read-out: MIC
S. pneumoniae ATCC49619 [5] = experiment: microbe, parasite or virus in culture; format: cell-based; conditions: Streptococcus pneumoniae
S. aureus ATCC29213 [6] = experiment: Frequency of development of resistant bacteria; format: cell-based, Staphylococcus aureus; conditions: for development of resistant bacteria (in words): S. aureus ATCC29213, 4 to 16 × MIC; for FREQUENCY OF DEVELOPMENT OF RESISTANT BACTERIA (AVERAGE OF TWO MEASURED VALUES): about 70 hours
Protocol: (§2) S. aureus ATCC29213 is Staphylococcus aureus, S. pneumoniae ATCC49619 is Streptococcus pneumoniae, and E. coli ATCC25922 is Escherichia coli. […]
(§3) The frequency of development of resistant bacteria was calculated by dividing the number of colonies developed on an agar medium having each drug concentration by the number of initially inoculated bacteria.

E. coli ATCC25922 = experiment: Frequency of development of resistant bacteria; format: cell-based, Escherichia coli; conditions: for FREQUENCY OF DEVELOPMENT OF RESISTANT BACTERIA (AVERAGE OF TWO MEASURED VALUES): about 70 hours
Protocol: as §2, §3

S. pneumoniae ATCC49619 [7] = experiment: Frequency of development of resistant bacteria; format: cell-based, Streptococcus pneumoniae; conditions: for FREQUENCY OF DEVELOPMENT OF RESISTANT BACTERIA (AVERAGE OF TWO MEASURED VALUES): about 70 hours
Protocol: as §2, §3

[8] = target: DNA gyrase derived from S. aureus (Staphylococcus aureus, UniProt P0A0K8+P20831); experiment: Enzyme inhibitory activity, supercoiling of relaxed pBR322; format: biochemical
Protocol: (§4) Agents Chemother. 45: 3544-3547 (2001). […] The measurement was performed in the same manner as in Test Example 3. Similarly, the inhibitory activities of ciproxacin, levofloxacin, and garenoxacin were measured. The results were compared.

[9] = target: QUINOLONE RESISTANT DNA gyrase (quinolone-resistant S. aureus) (Staphylococcus aureus, UniProt P20831); experiment: as above; format: biochemical
Protocol: as §4

[10] = target: QUINOLONE RESISTANT Topoisomerase IV (S. aureus) (Staphylococcus aureus, UniProt P0C1U9); experiment: Enzyme inhibitory activity, decatenation of kinetoplast DNA; format: biochemical
Protocol: as §4

[11] = target: Topoisomerase IV (S. aureus) (Staphylococcus aureus, UniProt P0C1S7+P0C1U9); experiment: as above; format: biochemical
Protocol: as §4

S. aureus MS5935 = experiment: Antibacterial activity against quinolone-resistant strain in vitro, CLSI dilution; format: cell-based; conditions: Staphylococcus aureus; S. aureus MS5935, PARENT STRAIN, gyrA None, grlA None
S. aureus MS5935 1st = experiment: microbe, parasite or virus in culture; format: cell-based; conditions: Staphylococcus aureus, MS59351ST
S. aureus MS5935 2nd = experiment: microbe, parasite or virus in culture; format: cell-based; conditions: Staphylococcus aureus, MS59352ND
S. aureus MS5935 3rd = experiment: microbe, parasite or virus in culture; format: cell-based; conditions: Staphylococcus aureus, MS59353RD
S. aureus MS5935 4th = experiment: microbe, parasite or virus in culture; format: cell-based; conditions: for MIC: Staphylococcus aureus, MS59354TH
[12] = target: DNA gyrase derived from S. pneumoniae IID553 (Streptococcus pneumoniae serotype 4, UniProt P0A4L9+P72524); experiment: Enzyme inhibitory activity, supercoiling of relaxed pBR322
[13] = target: Topoisomerase IV (S. pneumoniae IID553) (Streptococcus pneumoniae serotype 4, UniProt P72525+Q59961); experiment: Enzyme inhibitory activity, decatenation of kinetoplast DNA
[14] = S. pneumoniae ATCC49619, 4 × MIC
[15] = S. pneumoniae ATCC49619, 8 × MIC
[16] = S. pneumoniae ATCC49619, 16 × MIC

SMILES | MIC (S. pneumoniae IID553) | MIC (S. pneumoniae NF9884) | MIC (S. pneumoniae CF9842) | MIC (S. pneumoniae SF9863) | MIC (S. pneumoniae ST9941) | MIC (S. pneumoniae SN9981) | MIC (S. pneumoniae KY-9) | MIC90 [1] | MIC90 [2] | MIC90 [3] | MIC90 (PSSP (26 STRAINS)) | MIC (S. aureus ATCC29213 [4]) | MIC (S. pneumoniae ATCC49619 [5]) | development of resistant bacteria (in words) (S. aureus ATCC29213 [6]) | FREQUENCY OF DEVELOPMENT OF RESISTANT BACTERIA (AVERAGE OF TWO MEASURED VALUES) (S. aureus ATCC29213 [6]; S. aureus ATCC29213, 4 × MIC) | FREQUENCY OF DEVELOPMENT OF RESISTANT BACTERIA (AVERAGE OF TWO MEASURED VALUES) (S. aureus ATCC29213 [6]; S. aureus ATCC29213, 8 × MIC) | FREQUENCY OF DEVELOPMENT OF RESISTANT BACTERIA (AVERAGE OF TWO MEASURED VALUES) (S. aureus ATCC29213 [6]; S. aureus ATCC29213, 16 × MIC) | FREQUENCY OF DEVELOPMENT OF RESISTANT BACTERIA (AVERAGE OF TWO MEASURED VALUES) (E. coli ATCC25922; E. coli ATCC25922, 4 × MIC) | FREQUENCY OF DEVELOPMENT OF RESISTANT BACTERIA (AVERAGE OF TWO MEASURED VALUES) (E. coli ATCC25922; E. coli ATCC25922, 8 × MIC) | FREQUENCY OF DEVELOPMENT OF RESISTANT BACTERIA (AVERAGE OF TWO MEASURED VALUES) (E. coli ATCC25922; E. coli ATCC25922, 16 × MIC) | other results
COc1c(N2C[C@H](CNC3CC3)[C@H](F)C2)c(F)cc2c(=O)c(C(=O)O)cn(CCF)c12.Cl [Compound D, 7-[(3S,4S)-3-{(cyclopropylamino)methyl}-4-fluoropyrrolidine-1-yl]-6-fluoro-1-(2-fluoroethyl)-8-methoxy-4-oxo-1,4-dihydroquinoline-3-carboxylic acid hydrochloride] | 0.06 µg/mL | 0.125 µg/mL | 0.06 µg/mL | 0.06 µg/mL | 0.5 µg/mL | 0.25 µg/mL | 0.06 µg/mL | 0.06 µg/mL | 0.06 µg/mL | 0.06 µg/mL | 0.06 µg/mL | 0.008 µg/mL | 0.06 µg/mL | not observed | <2.1 × 10^−9 | <2.1 × 10^−9 | <2.1 × 10^−9 | <1.9 × 10^−9 | <1.9 × 10^−9 | <1.9 × 10^−9 | development of resistant bacteria (in words) (E. coli ATCC25922; E. coli ATCC25922, 4 to 16 × MIC): not observed; development of resistant bacteria (in words) (S. pneumoniae ATCC49619 [7]; S. pneumoniae ATCC49619, 4 to 16 × MIC): not observed; FREQUENCY OF DEVELOPMENT OF RESISTANT BACTERIA (AVERAGE OF TWO MEASURED VALUES) (S. pneumoniae ATCC49619 [7]; [14]): <1.1 × 10^−8; FREQUENCY OF DEVELOPMENT OF RESISTANT BACTERIA (AVERAGE OF TWO MEASURED VALUES) (S. pneumoniae ATCC49619 [7]; [15]): <1.1 × 10^−8; FREQUENCY OF DEVELOPMENT OF RESISTANT BACTERIA (AVERAGE OF TWO MEASURED VALUES) (S. pneumoniae ATCC49619 [7]; [16]): <1.1 × 10^−8; IC50 [8]: 3.57 µM; IC50 ([9]; read-out: IC50 VALUE, QUINOLONE RESISTANT DNA gyrase, average of three or average ± SD): 35.7 µM; IC50 ([10]; read-out: IC50 VALUE, QUINOLONE RESISTANT Topoisomerase IV): 5.88 µM; IC50 [11]: 1.53 µM; MIC (S. aureus MS5935): 0.015 µg/mL; MIC (S. aureus MS5935 1st): 0.03 µg/mL; MIC (S. aureus MS5935 2nd): 0.125 µg/mL; MIC (S. aureus MS5935 3rd): 0.5 µg/mL; potency (action strength) relative to the other quinolone compounds (S. aureus MS5935 4th; 4th step quadruple mutant S. aureus, from MIC): ≥ 16 times; MIC (S. aureus MS5935 4th): 2 µg/mL; IC50 [12]: 12.6 µM; IC50 [13]: 2.73 µM
C[C@H]1NCc2cc(-c3ccc4c(=O)c(C(=O)O)cn(C5CC5)c4c3OC(F)F)ccc21 [GRNX, garenoxacin] | 0.06 µg/mL (≈ 0.141 µM) | 0.125 µg/mL (≈ 0.293 µM) | 0.125 µg/mL (≈ 0.293 µM) | 0.25 µg/mL (≈ 0.586 µM) | 2 µg/mL (≈ 4.69 µM) | 1 µg/mL (≈ 2.35 µM) | 0.03 µg/mL (≈ 0.0704 µM) | 0.015 µg/mL (≈ 0.0352 µM) | 0.015 µg/mL (≈ 0.0352 µM) | 0.06 µg/mL (≈ 0.141 µM) | 0.06 µg/mL (≈ 0.141 µM) | 0.015 µg/mL | 0.06 µg/mL (≈ 0.141 µM) | developed | 8.2 × 10^−9* | <2.1 × 10^−9 | <2.1 × 10^−9 | <1.9 × 10^−9 | <1.9 × 10^−9 | <1.9 × 10^−9 | FREQUENCY OF DEVELOPMENT OF RESISTANT BACTERIA (AVERAGE OF TWO MEASURED VALUES) (S. pneumoniae ATCC49619 [7]; [14]): <1.1 × 10^−8; FREQUENCY OF DEVELOPMENT OF RESISTANT BACTERIA (AVERAGE OF TWO MEASURED VALUES) (S. pneumoniae ATCC49619 [7]; [15]): <1.1 × 10^−8; FREQUENCY OF DEVELOPMENT OF RESISTANT BACTERIA (AVERAGE OF TWO MEASURED VALUES) (S. pneumoniae ATCC49619 [7]; [16]): <1.1 × 10^−8; IC50 ([8]; S. aureus enzyme, average of three or average ± SD, read-out: IC50 VALUE, DNA gyrase (converted)): 25.8 µM; IC50 ([9]; average of three or average ± SD, read-out: IC50 VALUE, QUINOLONE RESISTANT DNA gyrase (converted)): 985 µM; IC50 ([10]; read-out: IC50 VALUE, QUINOLONE RESISTANT Topoisomerase IV (converted)): 63.3 µM; IC50 ([11]; S. aureus enzyme, read-out: IC50 VALUE, Topoisomerase IV (converted)): 4.46 µM; MIC (S. aureus MS5935): 0.015 µg/mL (≈ 0.0352 µM); MIC (S. aureus MS5935 1st): 0.03 µg/mL (≈ 0.0704 µM); MIC (S. aureus MS5935 2nd): 2 µg/mL (≈ 4.69 µM); MIC (S. aureus MS5935 3rd): 8 µg/mL (≈ 18.8 µM); MIC (S. aureus MS5935 4th): 32 µg/mL (≈ 75 µM); IC50 [12]: 84.4 µM; IC50 [13]: 5.16 µM
